Patent publication US20240315994A1, “SMALL MOLECULE MODULATORS OF FERROPTOSIS” (ARPEGGIO BIOSCIENCES, INC., priority 2021, published 2024)

These compounds were tested on HT-1080 fibrosarcoma cells (assay: HT-1080 single-concentration cell viability screen (Cell Titer Glo)). Conditions: 10 μM compound, 48 hours, duplicate, fraction of control.
Format: cell-based
Text: To identify potential covalent inhibitors of GPX4, we screened a panel of 294 diverse small molecules from the Enamine covalent inhibitor library (Catalog No. CSL-10480-0-Z-10, Enamine, Monmouth, NJ). Each compound contains either a chloroacetamide or acrylamide moiety theoretically capable of forming a covalent bond with a selenocysteine. The small molecule compounds were selected for a diversity of backbone structures. The screening protocol used the cell viability assay Cell Titer Glo® (available from Promega, Madison, WI). Cell Titer Glo® is a luminescent cell viability that determines the number of viable cells in culture by quantifying ATP, which indicates the presence of metabolically active cells. Briefly, HT-1080 fibrosarcoma cells were plated 24 hours prior to treatment with 10 µM of each compound in the screening panel. Cell Titer Glo® was used to read out cell viability after 48 hours of compound exposure. Data was collected in duplicate.
To determine whether similar molecules could offer other starting points for a medicinal chemistry campaign, we screened 95 additional compounds that contain a similar base structure to that of 8216. Briefly, HT-1080 fibrosarcoma cells were treated with 10 µM of a compound for 48 hours and cell viability was measured by Cell Titer Glo®. Data was collected in duplicate. […]

Compound | Average relative cell viability
O=C(CCl)N(Cc1ccccc1)c1nc(-c2ccc(Cl)cc2)cs1 [Compound Z56837054] | 0.001992
CCOC(=O)c1sc(N(Cc2ccccc2)C(=O)CCl)nc1C [Compound Z56837076] | 0.004698
O=C(CCl)N(CCc1ccccc1)Cc1ccccc1 [Compound Z56891378] | 0.001872
O=C(CCl)N(Cc1ccccc1)c1nc(-c2ccc(Br)cc2)cs1 [Compound Z56926666] | 0.008622
O=C(CCl)N(Cc1ccccc1)c1nc(-c2ccc(F)cc2)cs1 [Compound Z56946047] | 0.000624
Cc1cccc(N(Cc2ccccc2)C(=O)CCl)c1 [Compound Z57052885] | 0.002244
O=C(CCl)N(Cc1ccco1)C1=CCCCC1 [Compound Z89264994] | 0.01228
O=C(CCl)N(Cc1cccs1)C1CCS(=O)(=O)C1 (centres unmarked) [Compound Z90122115] | 0.05782
O=C(CCl)N(Cc1ccccc1)Cc1ccco1 [Compound Z108565162] | 0.005394
COCCN(Cc1ccccc1)C(=O)CCl [Compound Z147647648] | 0.1007
O=C(CCl)N(Cc1ccccc1)c1nc2c(s1)CCCC2 [Compound Z147647668] | 0.005838
Cc1ccc2sc(N(Cc3ccccc3)C(=O)CCl)nc2c1C [Compound Z147647684] | 0.006576
O=C(CCl)N(Cc1cccs1)CC1CCCO1 (centres unmarked) [Compound Z147647920] | 0.04392
O=C(CCl)N(Cc1ccc(F)cc1)c1nc(-c2ccccc2)cs1 [Compound Z147647938] | 0.000936
O=C(CCl)N(Cc1ccco1)C1CCS(=O)(=O)C1 (centres unmarked) [Compound Z147652330] | 0.7459
O=C(CCl)N(Cc1ccccc1)c1ccccc1 [Compound Z199424090] | 0.00039
O=C(CCl)N(Cc1ccccc1)Cc1ccc(F)cc1 [Compound Z381549666] | 0.001836
Cc1cc(CN(C(=O)CCl)C2CCCC2)c2ccccc2n1 [Compound Z1562139496] | 0.000174
O=C(CCl)N(Cc1ccccc1)CC1(O)CCOC1 (centres unmarked) [Compound Z1687602192] | 0.1445
CC#CC(=O)N(Cc1ccc(-n2cncn2)cc1)C1CC1 [Compound Z2020497058] | 1.089
CN(Cc1cnc(N(C)C)nc1)C(=O)CCl [Compound Z2596884436] | 0.4026
O=C(CCl)N(Cc1nc2ccsc2c(=O)[nH]1)C1CC1 [Compound Z3217399415] | 1.255
CN(Cc1nc2c(cnn2C)c(=O)[nH]1)C(=O)CCl [Compound Z3337549802] | 1.034
O=C(CCl)N(Cc1cnn(-c2ccccc2)c1)C1CC1 [Compound Z3629871044] | 0.001764
CC1(N(Cc2ccc3c(c2)OCO3)C(=O)CCl)CCCC1 [Compound Z3766260223] | 0.002238
O=C(CCl)N(Cc1cccs1)C1Cc2ccccc2C1 [Compound Z3766262414] | 0.5481

What follows are compounds tested on HT1080 cells (ATCC, cat #CCL-121) (assay: HT1080 CellTiter-Glo 2.0 IC50 assay of working examples). Conditions: HT-1080, 24 hrs, cells plated with and without 1.5 μM ferrostatin-1, table does not say which, Table 8.
Format: cell-based
Protocol: Biological evaluation of working examples A1-A47 and B1-B28 was performed in HT1080 cells (ATCC, cat #CCL-121) according to the procedure provided below.
• 1.1 Cells were harvested from flask into cell culture medium and then the cell number count was determined. • 1.2 The cells were suspended with 1.5 μM ferrostatin-1 and without ferrostatin-1. • 1.3 Cells were plated at a density of 1,500 cells per well in a 384-well black sided clear bottom plate, in 25 μL, using electronic multichannel pipette. • 1.4 Plates were covered with lid and spun for 1 min at 1000 rpm, then allowed to incubate overnight at 37° C. under 5% CO2.
• 2.1 Compounds were dissolved at 10 mM stock solution and 10 μl of diluted solution was transferred to a 384 LDV-plate (LABCYTE, LP-0200). A 3 fold, 11-point dilution was performed. • 2.2 Cells were treated with compounds by plate reformat Echo software and spun for 1 min at 1000 rpm. Then incubated at 37° C. for 24 hrs in a CO2 incubator.
• 3.1 The plates were removed from the incubator and allowed to equilibrate to room temperature, at least 30 minutes. • 3.2 CellTiter-Glo® 2.0 Reagent (Promega, G9242) was added (25 μL) to the assay plates and spun for 1 min at 1000 rpm. Then allowed to stand for about 20 minutes before reading luminescence signal on Envision. • 3.3 The IC50 calculations were determined with a nonlinear fit, variable slope (four parameters) log(inhibitor) vs. response model using GraphPad PRISM.

Compound | IC50 [µM]
Cc1cc(C)cc(N(C(=O)CCl)c2nc(C3CCCCC3)cs2)c1 [Compound B10, 2-chloro-N-(4-cyclohexylthiazol-2-yl)-N-(3,5-dimethylphenyl)acetamide] | 0.1 to 1
Cc1cc(C)cc(N(C(=O)CCl)c2nc(-c3ccccc3)cs2)c1 [Compound B11, 2-chloro-N-(3,5-dimethylphenyl)-N-(4-phenylthiazol-2-yl)acetamide] | 0.1 to 1
Cc1cc(C)cc(N(C(=O)CCl)c2nc(-c3cccc(Br)c3)cs2)c1 [Compound B12, N-[4-(3-bromophenyl)thiazol-2-yl]-2-chloro-N-(3,5-dimethylphenyl)acetamide] | 0.1 to 1
C#CC(=O)N(c1cc(C)cc(C)c1)c1nc(-c2ccc(Br)cc2)cs1 [Compound B13, N-[4-(4-bromophenyl)thiazol-2-yl]-N-(3,5-dimethylphenyl)prop-2-ynamide] | 0.01 to 0.1
O=C(CCl)N(Cc1ccccc1)c1nc(-c2ccc(Br)cc2)cs1 [Compound B14, N-benzyl-N-[4-(4-bromophenyl)thiazol-2-yl]-2-chloro-acetamide] | 1 to 10
O=C(CCl)N(c1ccccc1)c1nc(-c2ccc(Br)cc2)cs1 [Compound B15, N-[4-(4-bromophenyl)thiazol-2-yl]-2-chloro-N-phenyl-acetamide] | > 10
Cc1cccc(N(C(=O)CCl)c2nc(-c3ccc(Br)cc3)cs2)c1 [Compound B16, N-[4-(4-bromophenyl)thiazol-2-yl]-2-chloro-N-(m-tolyl)acetamide] | > 10
COc1cccc(N(C(=O)CCl)c2nc(-c3ccc(Br)cc3)cs2)c1 [Compound B17, N-[4-(4-bromophenyl)thiazol-2-yl]-2-chloro-N-(3-methoxyphenyl)acetamide] | 0.1 to 1
C#CC(=O)N(c1cc(OC)cc(OC)c1)c1nc(-c2ccc(Br)cc2)cs1 [Compound B19, N-[4-(4-bromophenyl)thiazol-2-yl]-N-(3,5-dimethoxyphenyl)prop-2-ynamide] | 0.01 to 0.1
O=C(CCl)N(c1cc(Cl)cc(Cl)c1)c1nc(-c2ccc(Br)cc2)cs1 [Compound B20, N-[4-(4-bromophenyl)thiazol-2-yl]-2-chloro-N-(3,5-dichlorophenyl)acetamide] | 1 to 10
Cc1cc(C)cc(N(C(=O)CI)c2nc(-c3ccc(Br)cc3)cs2)c1 [Compound B21, N-[4-(4-bromophenyl)thiazol-2-yl]-N-(3,5-dimethylphenyl)-2-iodo-acetamide] | 0.01 to 0.1
C#CC(=O)N(c1cc(Cl)cc(Cl)c1)c1nc(-c2ccc(Br)cc2)cs1 [Compound B22, N-[4-(4-bromophenyl)thiazol-2-yl]-N-(3,5-dichlorophenyl)prop-2-ynamide] | 0.01 to 0.1
C=C(F)C(=O)N(c1cc(C)cc(C)c1)c1nc(-c2ccc(Br)cc2)cs1 [Compound B23, N-[4-(4-bromophenyl)thiazol-2-yl]-N-(3,5-dimethylphenyl)-2-fluoro-prop-2-enamide] | > 10
COc1cc(Cl)cc(N(C(=O)CCl)c2nc(-c3ccc(Br)cc3)cs2)c1 [Compound B24, N-[4-(4-bromophenyl)thiazol-2-yl]-2-chloro-N-(3-chloro-5-methoxy-phenyl)acetamide] | 0.1 to 1
O=C(CCl)N(c1cc(F)cc(F)c1)c1nc(-c2ccc(Br)cc2)cs1 [Compound B25, N-[4-(4-bromophenyl)thiazol-2-yl]-2-chloro-N-(3,5-difluorophenyl)acetamide] | > 10
C#CC(=O)N(c1cc(Cl)cc(OC)c1)c1nc(-c2ccc(Br)cc2)cs1 [Compound B26, N-[4-(4-bromophenyl)thiazol-2-yl]-N-(3-chloro-5-methoxy-phenyl)prop-2-ynamide] | 0.01 to 0.1
Cc1cc(C)cc(N(C(=O)CF)c2nc(-c3ccc(Br)cc3)cs2)c1 [Compound B27, N-[4-(4-bromophenyl)thiazol-2-yl]-N-(3,5-dimethylphenyl)-2-fluoro-acetamide] | > 10
Cc1cc(C)cc(N(C(=O)C2CO2)c2nc(-c3ccc(Br)cc3)cs2)c1 (centres unmarked) [Compound B28, N-[4-(4-bromophenyl)thiazol-2-yl]-N-(3,5-dimethylphenyl)oxirane-2-carboxamide] | > 10
